Results published in patent US20100152235A1, “OXADIAZOLE DERIVATIVES ACTIVE ON SPHINGOSINE-1-PHOSPHATE (S1P)” (priority 2007, published 2010).
Where a name gives a salt, the structure may show the parent alone.

System: not given
Assay: not given
Conditions: clinical studies, first 24 hours of treatment, literature; cited from earlier work

Compound | bradycardia
CCCCCCCCc1ccc(CCC(N)(CO)CO)cc1 [FTY720] | results in bradycardia in the first 24 hours of treatment

System: circulating lymphocytes
Assay: not given
Conditions: animals and man, literature; cited from earlier work

Compound | effect on circulating lymphocytes
CCCCCCCCc1ccc(CCC(N)(CO)CO)cc1 [FTY720] | reduce circulating lymphocytes in animals and man

Target: T1, human S1P1 receptor (Homo sapiens, UniProt P21453)
T1 construct: expressed in transfected cells; membranes
T1 sequence (P21453 whole entry): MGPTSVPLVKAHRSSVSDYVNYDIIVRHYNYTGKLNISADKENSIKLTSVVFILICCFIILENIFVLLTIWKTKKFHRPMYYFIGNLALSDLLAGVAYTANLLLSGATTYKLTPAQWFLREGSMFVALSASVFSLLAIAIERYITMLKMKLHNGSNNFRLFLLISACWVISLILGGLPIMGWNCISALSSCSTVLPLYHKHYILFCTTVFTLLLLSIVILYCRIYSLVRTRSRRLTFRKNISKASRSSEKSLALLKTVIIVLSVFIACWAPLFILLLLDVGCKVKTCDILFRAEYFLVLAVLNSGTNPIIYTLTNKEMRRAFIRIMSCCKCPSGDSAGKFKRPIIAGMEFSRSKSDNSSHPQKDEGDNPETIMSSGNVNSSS
Assay: S1P1 GTPγS assay
Format: biochemical
Conditions: [35S]-GTPγS SPA, membranes of rat hepatoma cells expressing human S1P1, agonist
Method: (§1) For membrane preparations all steps were performed at 4° C. Rat hepatoma cells stably expressing the human S1P1 receptor or Rat Basophilic Leukaemia cells (RBL) stably expressing human S1P3 receptor were grown to 80% confluency before being harvested into 10 ml Phospho-Buffered Saline (PBS) and centrifuged at 1200 rpm for 5 minutes. After removal of the supernatant, the pellet was re-suspended and cells were homogenised within a glass Waring blender for 2 bursts of 15 secs in 200 mls of buffer (50 mM HEPES, 1 mM leupeptin, 25 μg/ml bacitracin, 1 mM EDTA, 1 mM PMSF, 2 μM pepstatin A). The blender was plunged into ice for 5 mins after the first burst and 10-40 mins after the final burst to allow foam to dissipate. The material was then spun at 500 g for 20 mins and the supernatant spun for 36 mins at 48,000 g. The pellet was resuspended in the same buffer as above but without PMSF and pepstatin A. The material was then forced through a 0.6 mm needle, made up to the required volume, (usually ×4 the volume of the original cell pellet), aliquoted and stored frozen at −80° C.
as §1, with “All” for “For membrane preparations all”, “Cells” for “Rat hepatoma cells stably expressing the human S1P1 receptor or Rat Basophilic Leukaemia cells (RBL) stably expressing human S1P3 receptor were grown to 80% confluency before being harvested into 10 ml Phospho-Buffered Saline (PBS) and centrifuged at 1200 rpm for 5 minutes. After removal of the supernatant, the pellet was re-suspended and cells”
Human S1P1 rat hepatoma membranes (1.5 μg/well) were adhered to a wheatgerm agglutinin (WGA)-coated scintillation proximity assay (SPA) beads (0.125 mg/well) in assay buffer (HEPES 20 mM, MgCl2 10 mM, NaCl 100 mM and pH adjusted to 7.4 using KOH 5 M, GDP 10 μM FAC (final assay concentration) and saponin 90 μg/ml FAC was also added).
After 30 minutes pre-coupling on ice the bead and membrane suspension was dispensed into a white Greiner polypropylene LV384-well plate ([…]), containing 0.1 μl of the compound. […] [^35S]-GTPγS (0.5 nM final radioligand conc) made up in assay buffer was then added to agonist plates. The final assay cocktail (10.1 μl) was then centrifuged at 1000 rpm for 5 minutes then read immediately on a Viewlux reader.
All test compounds were dissolved in DMSO at a concentration of 10 mM and were prepared in 100% DMSO using a 1 in 4 dilution step to provide 11 point dose response curves. The dilutions were transferred to the assay plates ensuring that the DMSO concentration was constant across the plate for all assays.
All data was normalized to the mean of 16 high and 16 low control wells on each plate. A four parameter curve fit was then applied.
S1P1 expressing RH7777 membranes (1.5 μg/well) […] were homogenised by passing through a 23G needle. These were then adhered to WGA-coated SPA beads (0.125 mg/well) in assay buffer (HEPES 20 mM, MgCl2 10 mM, NaCl 100 mM and pH adjusted to 7.4 using KOH 5M). GDP […] FAC and saponin 90 μg/ml FAC were also added.
After 30 minutes precoupling on ice, the bead and membrane suspension was dispensed into white Greiner polypropylene LV 384-well plates (5 μl/well), containing 0.1 μl of compound. 5 μl/well [^35S]-GTPγS (0.5 nM for S1P1 or 0.3 nM for S1P3 final radioligand concentration) made in assay buffer was then added to the plates. The final assay cocktail (10.1 μl) was then sealed, spun on a centrifuge, then read immediately on a Viewlux instrument.

Compound | EC50 [nM]
Cc1c(-c2noc(-c3ccc(OC(C)C)c(C#N)c3)n2)ccc2c1CCN(CCC(=O)O)C2 [Example 13, 3-[6-(5-{3-Cyano-4-[(1-methylethyl)oxy]phenyl}-1,2,4-oxadiazol-3-yl)-5-methyl-3,4-dihydro-2(1H)-isoquinolinyl]propanoic acid sodium salt] | < 100
Cc1c(-c2noc(-c3ccc(OC(C)C)c(Cl)c3)n2)ccc2c1CCN(CCC(=O)O)C2 [Example 8, 3-[6-(5-{3-Chloro-4-[(1-methylethyl)oxy]phenyl}-1,2,4-oxadiazol-3-yl)-5-methyl-3,4-dihydro-2(1H)-isoquinolinyl]propanoic acid] | < 10
CC(C)Oc1ccc(-c2nc(-c3cccc4c3CCNC4)no2)cc1C#N [Example 2, 2-[(1-methylethyl)oxy]-5-[3-(1,2,3,4-tetrahydro-5-isoquinolinyl)-1,2,4-oxadiazol-5-yl]benzonitrile hydrochloride] | < 10
CC(C)Oc1ccc(-c2nc(-c3cccc4c3CCN(CCC(=O)O)C4)no2)cc1C#N [Example 5, 3-[5-(5-{3-cyano-4-[(1-methylethyl)oxy]phenyl}-1,2,4-oxadiazol-3-yl)-3,4-dihydro-2(1H)-isoquinolinyl]propanoic acid hydrochloride] | < 100
Cc1c(-c2noc(-c3ccc(OC(C)C)c(Cl)c3)n2)ccc2c1CCN(CC(=O)O)C2 [Example 9, [6-(5-{3-Chloro-4-[(1-methylethyl)oxy]phenyl}-1,2,4-oxadiazol-3-yl)-5-methyl-3,4-dihydro-2(1H)-isoquinolinyl]acetic acid] | < 100
CC(C)Oc1ccc(-c2nc(-c3cccc4c3CCN(CCCC(=O)O)C4)no2)cc1C#N [Example 6, 4-[5-(5-{3-cyano-4-[(1-methylethyl)oxy]phenyl}-1,2,4-oxadiazol-3-yl)-3,4-dihydro-2(1H)-isoquinolinyl]butanoic acid hydrochloride] | < 10
CC(C)Oc1ccc(-c2nc(-c3cccc4c3CCN(CC(=O)O)C4)no2)cc1C#N [Example 4, [5-(5-{3-cyano-4-[(1-methylethyl)oxy]phenyl}-1,2,4-oxadiazol-3-yl)-3,4-dihydro-2(1H)-isoquinolinyl]acetic acid hydrochloride] | < 10
CC(C)Oc1ccc(-c2nc(-c3cccc4c3CCNC4)no2)cc1Cl [Example 1, 5-(5-{3-chloro-4-[(1-methylethyl)oxy]phenyl}-1,2,4-oxadiazol-3-yl)-1,2,3,4-tetrahydroisoquinoline hydrochloride] | < 100
CC(C)Oc1ccc(-c2nc(-c3cccc4c3CCN(C)C4)no2)cc1C#N [Example 7, 2-[(1-methylethyl)oxy]-5-[3-(2-methyl-1,2,3,4-tetrahydro-5-isoquinolinyl)-1,2,4-oxadiazol-5-yl]benzonitrile] | < 100
Cc1c(-c2noc(-c3ccc(OC(C)C)c(C#N)c3)n2)ccc2c1CCNC2 [Example 11, 2-[(1-Methylethyl)oxy]-5-[3-(5-methyl-1,2,3,4-tetrahydro-6-isoquinolinyl)-1,2,4-oxadiazol-5-yl]benzonitrile trifluoroacetic acid salt] | < 100
CC(C)Oc1ccc(-c2nc(-c3cccc4c3CCNC4)no2)cc1C#N [Example 3, 2-[(1-methylethyl)oxy]-5-[3-(1,2,3,4-tetrahydro-5-isoquinolinyl)-1,2,4-oxadiazol-5-yl]benzonitrile] | < 100
Cc1c(-c2noc(-c3ccc(OC(C)C)c(C#N)c3)n2)ccc2c1CCN(CC(=O)O)C2 [Example 12, [6-(5-{3-Cyano-4-[(1-methylethyl)oxy]phenyl}-1,2,4-oxadiazol-3-yl)-5-methyl-3,4-dihydro-2(1H)-isoquinolinyl]acetic acid] | < 100
